Assay results reported in patent US20080058636A1, “METHODS OF MYOCARDIAL IMAGING” (Epix Pharmaceuticals, Inc., priority 2005, published 2008).
Each block holds one compound with its values, some of them ahead of it.

Tests used:
infarcted myocardium [1] = test: Mouse model of chronic infarction, MR imaging; settings: mice with 7 day, 40 day or 210 day infarcts, 25 μmol/kg i.v.
infarcted myocardium [2] = test: Myocardial infarction MR imaging in mouse (7 days post MI); settings: 25 μmol/kg i.v.
[3] = In vivo heart uptake in mice, gadolinium by ICP-MS (tail vein); parameters: species or system BALB/c mice; settings: mouse, 10 μmol/kg tail vein, 15 minutes post-injection
Description: In vivo heart uptake of these two compounds were also compared. […] The animals were sacrificed at 15 minutes post-injection. The organs were immediately removed and rinsed in saline, and then blotted dry. […] Both compounds have similar concentrations in the blood.

rat type I collagen gel = target: T1, rat type I collagen gel (Rattus norvegicus, UniProt P02454+P02466); test: MR phantom imaging of collagen gel samples at 4.7 T
T1 construct: Rat collagen (acid soluble, type I, rat tail, Upstate USA, Inc, cat# 08-115); purchased Upstate USA, Inc 08-115; host or cells: rat tail (tissue extract)
T1 sequence (P02454 152-1207 limits assumed): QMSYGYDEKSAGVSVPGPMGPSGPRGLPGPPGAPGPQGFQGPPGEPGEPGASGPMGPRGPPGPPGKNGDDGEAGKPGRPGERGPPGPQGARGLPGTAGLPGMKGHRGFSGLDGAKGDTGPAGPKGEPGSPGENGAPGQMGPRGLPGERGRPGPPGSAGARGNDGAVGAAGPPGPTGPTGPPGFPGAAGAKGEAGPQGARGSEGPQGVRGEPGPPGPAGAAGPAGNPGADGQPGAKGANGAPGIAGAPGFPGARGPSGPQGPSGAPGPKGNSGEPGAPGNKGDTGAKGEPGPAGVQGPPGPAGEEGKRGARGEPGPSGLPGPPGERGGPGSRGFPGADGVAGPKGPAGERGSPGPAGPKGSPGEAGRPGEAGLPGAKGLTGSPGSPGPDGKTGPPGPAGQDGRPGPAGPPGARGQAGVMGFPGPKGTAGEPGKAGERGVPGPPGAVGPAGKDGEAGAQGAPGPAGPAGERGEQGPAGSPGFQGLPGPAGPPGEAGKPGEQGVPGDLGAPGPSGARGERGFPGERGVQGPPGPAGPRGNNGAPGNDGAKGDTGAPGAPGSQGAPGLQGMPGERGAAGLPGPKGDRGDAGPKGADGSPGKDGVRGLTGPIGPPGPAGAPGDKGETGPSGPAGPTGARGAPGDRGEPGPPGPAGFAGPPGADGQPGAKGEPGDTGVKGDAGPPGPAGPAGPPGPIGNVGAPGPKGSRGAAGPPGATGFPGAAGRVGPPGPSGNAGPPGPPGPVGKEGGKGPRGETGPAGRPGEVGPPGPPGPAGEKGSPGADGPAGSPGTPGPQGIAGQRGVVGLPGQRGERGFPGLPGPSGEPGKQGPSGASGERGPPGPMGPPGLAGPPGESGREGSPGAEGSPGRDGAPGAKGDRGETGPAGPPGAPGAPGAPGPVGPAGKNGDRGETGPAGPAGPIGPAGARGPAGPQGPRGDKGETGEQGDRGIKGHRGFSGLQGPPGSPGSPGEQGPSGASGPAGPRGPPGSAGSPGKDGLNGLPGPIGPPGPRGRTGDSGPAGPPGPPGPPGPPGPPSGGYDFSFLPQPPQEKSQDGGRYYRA
T1 sequence (P02466 86-1125 limits assumed): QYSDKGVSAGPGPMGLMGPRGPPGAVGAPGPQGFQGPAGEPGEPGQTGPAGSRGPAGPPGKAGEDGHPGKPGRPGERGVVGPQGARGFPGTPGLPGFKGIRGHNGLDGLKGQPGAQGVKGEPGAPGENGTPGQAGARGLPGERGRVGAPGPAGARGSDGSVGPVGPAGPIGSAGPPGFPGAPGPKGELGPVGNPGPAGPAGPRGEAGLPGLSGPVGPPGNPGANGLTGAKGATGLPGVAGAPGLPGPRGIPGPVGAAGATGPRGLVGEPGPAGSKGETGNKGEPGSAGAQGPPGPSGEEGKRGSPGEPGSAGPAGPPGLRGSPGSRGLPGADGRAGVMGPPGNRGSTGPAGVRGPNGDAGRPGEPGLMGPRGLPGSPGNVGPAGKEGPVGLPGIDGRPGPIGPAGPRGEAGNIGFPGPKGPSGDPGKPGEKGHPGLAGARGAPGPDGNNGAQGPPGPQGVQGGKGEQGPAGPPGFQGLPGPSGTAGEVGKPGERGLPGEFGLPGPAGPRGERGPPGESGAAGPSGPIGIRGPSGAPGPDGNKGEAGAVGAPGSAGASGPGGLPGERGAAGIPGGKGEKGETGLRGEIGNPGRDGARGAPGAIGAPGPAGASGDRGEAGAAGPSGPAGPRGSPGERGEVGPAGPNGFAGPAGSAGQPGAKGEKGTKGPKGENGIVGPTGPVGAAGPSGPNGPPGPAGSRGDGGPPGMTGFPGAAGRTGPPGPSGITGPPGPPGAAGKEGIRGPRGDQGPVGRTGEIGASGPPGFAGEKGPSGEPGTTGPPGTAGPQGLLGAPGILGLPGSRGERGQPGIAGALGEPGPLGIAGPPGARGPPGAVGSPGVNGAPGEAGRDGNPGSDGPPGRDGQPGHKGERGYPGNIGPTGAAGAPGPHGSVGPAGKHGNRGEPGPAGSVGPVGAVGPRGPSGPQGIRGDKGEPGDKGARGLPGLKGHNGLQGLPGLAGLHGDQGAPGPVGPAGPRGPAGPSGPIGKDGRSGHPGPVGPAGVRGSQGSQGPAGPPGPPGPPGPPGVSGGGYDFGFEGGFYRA
Description: (§1) Samples: • 1. […] Sample prepared as sample 2, but centrifuged to separate insoluble rat collagen gel • 5. Sample prepared as sample 3, but centrifuged to separate insoluble human collagen gel • 6. 27 μM GdDTPA solution in PBS, pH 7.4 • 7. 27 μM GdDTPA in a solution of 5.0 μM rat type I collagen in 10 mM phosphate buffer, pH 5 incubated at 37° C. overnight to form a gel • 8. Sample prepared as in sample 7, but centrifuged to separate insoluble rat collagen gel • 9. Homogeneous gel of 5 μM rat collagen • 10. Homogeneous gel of 7.5 μM human collagen
Samples for imaging were placed in glass tubes that were in turn placed in tubes containing water. Images were acquired at 4.7 T on a Bruker Biospec Imager using a Multi-Slice Multi-Echo Method with variable Relaxation Delay (MSMEVTR) experiment. The spin echo time and the relaxation delay were set to TE=11.2 ms and TR=500 ms, respectively with a flip angle of 30°. Images were acquired of sample 2, sample 4, sample 7, and sample 8. […] Sample 7 and 8 show uniform signal intensity.

[4] = MR phantom study: T1 of samples at 0.47 Tesla; type: physicochemical; settings: 37° C.
Description: Acid soluble human collagen type I extracted from placenta (Sigma, cat# C7774, lot#083K375) was dissolved in 15 mM HCl (3.5 mg/mL) by vortexing and gently shaking for 3-4 hours at 4° C. The acid soluble collagen was dialyzed against PBS (pH 7.4). Protein concentration was determined by the BCA method (Pierce, Cat#23225) using bovine collagen (Vitrogen, cat#FXP-019) as a reference standard. The final collagen concentration for the stock solution was 9 μM.
Rat collagen (acid soluble, type I, rat tail, Upstate USA, Inc. Cat# 08-115) was dialyzed against 10 mM Phosphate buffer (NaH2PO4, pH 4.2). The final collagen concentration for the stock solution was approx. 12 μM.
as §1
T1 was determined for samples 1, 2, 3, 6, 7, 9, 10 at 0.47 Tesla using a Bruker NMS120 minispec NMR analyzer operating at 37° C.

[5] = Biodistribution (heart, blood) after tail vein injection, radiotracer counting; type: in vivo, Sprague-Dawley rats; settings: for Blood (% ID/g) / Heart (% ID/g): rat, 0.5 μmol/kg tail vein
Description: Concentration estimates were decay corrected. Studies were performed at least in duplicate.

[6] = test system: perfused Langendorff rat heart; test: Washout kinetics from perfused Langendorff rat heart
Description: A K-H buffer filled 20 Gauge needle was inserted into the apex of the heart penetrating into the bottom of the chamber. This was attached to a pressure transducer used to record and monitor heart function. Perfusion pressure (60 mmHg) was monitored using a second transducer. The heart was perfused at a constant flow rate of 10-12 mL/min with 37° C. […] The heart was paced at 300 beats/min.
A Langendorff rat heart preparation was perfused with K-H buffer at a rate of 10-12 mL/min. […] After the infusion was finished, the heart was either removed or perfusion was allowed to continue for an additional 10 minutes and then the heart was removed. The perfusion buffer was not recirculated through the heart. After removal of any connective tissue, the heart was opened, fluid in the chambers drained, and the interior blotted dry with filter paper. […] An aliquot of the K-H buffer was also weighed and counted. Concentration estimates were decay corrected. Studies were performed at least in duplicate.

[7] = test system: perfused Langendorff rat heart; test: Equilibrium binding to perfused Langendorff rat heart
Description: After deep anesthesia with pentobarbital (80 mg/kg ip), the chest cavity of a male Sprague Dawley rat (300 g) was opened, retracted and the heart was removed immediately and placed in an ice-cold normal Krebs-Henseleit (K-H) solution (NaCl, 118 mM; KCl, 4.7 mM; CaCl2, 2.5 mM; MgSO4, 1.2 mM; KH2PO4, 1.2 mM; NaHCO3, 25 mM; glucose, 5.5 mM). A K-H buffer filled 20 Gauge needle was inserted into the apex of the heart penetrating into the bottom of the chamber. This was attached to a pressure transducer used to record and monitor heart function. Perfusion pressure (60 mmHg) was monitored using a second transducer. The heart was perfused at a constant flow rate of 10-12 mL/min with 37° C. Krebs-Henseleit buffer saturated with a mixture of 95% O2 and 5% CO2 gas. The heart was paced at 300 beats/min.
Two peptide test articles, a high collagen binding peptide (SEQ ID NO: 144) and a low collagen binding peptide (SEQ ID NO: 173), are compared to GdDTPA. The appropriate test article was added to the K-H buffer solution to a total concentration of either 3 or 30 μM. Also added to the K-H buffer was a radiotracer analog of each peptide or GdDTPA. For the peptides, the radiotracer was an aliquot of the appropriate I-125 labeled peptide derivative (see Example 5 for protocol). For GdDTPA, the tracer added was Tc-99m labeled DTPA. The amount of radioactivity added to the buffer solution was 1-5 μCi.
The heart was perfused for a period of 10 minutes and the perfusion solution was recycled through the heart. The total volume of K-H buffer used was 50-60 mL. After 10 min, the heart was removed from the apparatus and any connective tissue was removed. The heart was opened, fluid in the chambers drained, and the interior blotted dry with filter paper. The heart was then weighed and the radioactivity in the heart measured with a Packard Cobra 5003 Gamma Scintillation counter. An aliquot of the K-H buffer was also weighed and counted. Studies were performed at least in duplicate.
The dual peptide gadolinium tetramer (Compound ID 803) was compared to GdDTPA. Compound ID 803 and GdDTPA were added to the K-H buffer solution to a total concentration of 3 μM. Also added to the K-H buffer was a radiotracer analog of Compound ID 803 or GdDTPA. For Compound ID 803, the radiotracer was an aliquot of the In-111 labeled compound. For GdDTPA, the tracer added was Tc-99m labeled DTPA. The amount of radioactivity added to the buffer solution was 1-5 μCi.

Compound: CC(C)C[C@H](NC(=O)[C@@H]1CSSC[C@H](NC(=O)[C@H](Cc2c[nH]cn2)NC(=O)[C@H](Cc2c[nH]c3ccccc23)NC(=O)[C@H](CCCCNC(=O)CNC(=S)Nc2ccc(C[C@@H](CN(CCN(CC(=O)O)CC(=O)O)CC(=O)O)N(CC(=O)O)CC(=O)O)cc2)NC(=O)CNC(=S)Nc2ccc(C[C@@H](CN(CCN(CC(=O)O)CC(=O)O)CC(=O)O)N(CC(=O)O)CC(=O)O)cc2)C(=O)N[C@@H]([C@@H](C)O)C(=O)N[C@@H]([C@@H](C)O)C(=O)N[C@@H](CCCCNC(=S)Nc2ccc(C[C@@H](CN(CCN(CC(=O)O)CC(=O)O)CC(=O)O)N(CC(=O)O)CC(=O)O)cc2)C(=O)N[C@@H](Cc2ccccc2)C(=O)N2CCC[C@H]2C(=O)N[C@@H](Cc2c[nH]cn2)C(=O)N[C@@H](Cc2c[nH]cn2)C(=O)N[C@@H](Cc2ccc(O)cc2)C(=O)N1)C(=O)N[C@@H](Cc1ccc(O)cc1)C(=O)N[C@@H](Cc1ccc(-c2ccccc2)cc1)C(N)=O [Compound ID 800]
MR appearance of infarct zone (infarcted myocardium [1]): infarct zone as hyperintense relative to the normal, viable myocardium | enhancement of infarcted zones (infarcted myocardium [2]): hyperenhancement of infarcted zones | persistence of the enhancement (infarcted myocardium [2]): at least 1 hour | Gadolinium concentrations in the blood [3]: 14.3±2.3 nmol Gd/g tissue | Gadolinium concentrations in the heart [3]: 25.5±2.0 nmol Gd/g tissue

T1 ([4]; in 5.0 μM rat collagen gel, 10 μM Compound ID 1022 or 27 μM GdDTPA): 2.410 s | T1 ([4]; in PBS pH 7.4, 10 μM Compound ID 1022 or 27 μM GdDTPA): 2.437 s | Heart:Blood ([5]; 1 min post injection): 0.26 | Heart:Blood ([5]; 5 min post injection): 0.26 | Blood (% ID/g) ([5]; 1 min post injection): 1.2 ± 0.2 % ID/g | Heart (% ID/g) ([5]; 1 min post injection): 0.32 ± 0.02 % ID/g | Blood (% ID/g) ([5]; 5 min post injection): 0.67 ± 0.12 % ID/g | Heart (% ID/g) ([5]; 5 min post injection): 0.17 ± 0.08 % ID/g | Heart:Buffer ([7]; buffer 3.0 μM): 0.42 ± 0.06 | Heart ([7]; buffer 3.0 μM, 10 minutes recirculating perfusion): 1.3 ± 0.3 nmol/g | Heart:Buffer ([7]; buffer 30 μM): 0.46 ± 0.03 | Heart ([7]; buffer 30 μM, 10 minutes recirculating perfusion): 14 ± 1.0 nmol/g | Heart ([7]; perfused Langendorff rat heart, 3 μM compound in recirculated K-H buffer, 10 min perfusion, radiotracer counting): 1.4 ± 0.02 nmol/g | Heart:Buffer ([7]; ratio of heart concentration to buffer concentration (3.0 μM), 10 min perfusion): 0.46 ± 0.05
Compound: O=C([O-])CN(CCN(CC(=O)[O-])CC(=O)O)CCN(CC(=O)[O-])CC(=O)O.[Gd+3] [GdDTPA, gadolinium diethylenetriaminepentaacetate, reference compound]
MR signal of centrifuged collagen gel pellet versus supernatant (rat type I collagen gel): no increased concentration of GdDTPA in the gel relative to the supernatant | Heart (% ID/g) ([6]; 0 min after infusion): 2.9 ± 1.5 % ID/g | Heart (% ID/g) ([6]; 10 min after infusion, non-recirculated buffer): 0.014 ± 0.002 % ID/g | Heart (% ID/g) ([6]; time after infusion 0 min, 1 mL of 300 μM infused at 1 mL/min, buffer not recirculated): 2.53 ± 0.50 % ID/g | Heart (% ID/g) ([6]; time after infusion 10 min, 1 mL of 300 μM infused at 1 mL/min, buffer not recirculated): 0.056 ± 0.011 % ID/g
